Source: PubChem BioAssay AID330 (DTP/NCI, 2004)
Where “and” joins values, the source holds several entries; their conditions need not be identical. Identical values can stand only once. Inconclusive results and toxic doses are left out. How the source made its calls: active means survival T/C of 150% or more; inactive means T/C below 125% in these data.

System: P388 leukemia ip, CD2F1 mice, survival T/C
Test: NCI In Vivo Anticancer Drug Screen. Data for tumor model P388 Leukemia (intraperitoneal) in CD2F1 (CDF1) mice
Conditions: endpoint: median survival time, higher = longer survival
Summary of the method: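 Mice carrying the transplanted tumor received test compound or vehicle. Survival was recorded in each group, and the value is the treated-group measurement divided by that of the vehicle-treated control group.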

[1] = dose: 100.0 mg/kg/injection, schedule: Q01DX001 (ip), vehicle: saline with Tween-80
[2] = dose: 200.0 mg/kg/injection, schedule: Q01DX001 (ip), vehicle: saline with Tween-80
[3] = dose: 400.0 mg/kg/injection, schedule: Q01DX001 (ip), vehicle: saline with Tween-80
[4] = dose: 6.25 mg/kg/injection, schedule: Q01DX009 (ip), vehicle: saline with Tween-80
[5] = dose: 12.5 mg/kg/injection, schedule: Q01DX009 (ip), vehicle: saline with Tween-80
[6] = dose: 25.0 mg/kg/injection, schedule: Q01DX009 (ip), vehicle: saline with Tween-80
[7] = dose: 50.0 mg/kg/injection, schedule: Q01DX009 (ip), vehicle: saline with Tween-80
[8] = dose: 12.5 mg/kg/injection, schedule: Q01DX009 (ip), vehicle: saline
[9] = dose: 100.0 mg/kg/injection, schedule: Q04DX003 (ip), vehicle: saline
[10] = dose: 400.0 mg/kg/injection, schedule: Q04DX003 (ip), vehicle: saline
[11] = dose: 60.0 mg/kg/injection, schedule: Q01DX005 (ip), vehicle: saline with Tween-80
[12] = dose: 120.0 mg/kg/injection, schedule: Q01DX005 (ip), vehicle: saline with Tween-80
[13] = dose: 240.0 mg/kg/injection, schedule: Q01DX005 (ip), vehicle: saline with Tween-80
[14] = dose: 25.0 mg/kg/injection, schedule: Q04DX003 (ip), vehicle: saline with Tween-80
[15] = dose: 50.0 mg/kg/injection, schedule: Q04DX003 (ip), vehicle: saline with Tween-80
[16] = dose: 60.0 mg/kg/injection, schedule: Q01DX005 (ip), vehicle: Klucel (hydroxypropylcellulose) (HPC)
[17] = dose: 120.0 mg/kg/injection, schedule: Q01DX005 (ip), vehicle: Klucel (hydroxypropylcellulose) (HPC)
[18] = dose: 50.0 mg/kg/injection, schedule: Q01DX005 (ip), vehicle: Klucel (hydroxypropylcellulose) (HPC)

Measured: T/C

Cc1ccc(S(=O)(=O)NC(=O)NC(=S)c2cccc3ccccc23)cc1
inactive: [1] 101 % of control | [2] 99 % of control | [3] 102 % of control

COc1ccc2nc(-c3ccccn3)ccc2c1
inactive: dose: 25.0 mg/kg/injection, schedule: Q01DX009 (ip), vehicle: distilled water + Tween-80 106 % of control | dose: 50.0 mg/kg/injection, schedule: Q01DX009 (ip), vehicle: distilled water + Tween-80 106 % of control | dose: 100.0 mg/kg/injection, schedule: Q01DX009 (ip), vehicle: distilled water + Tween-80 101 % of control | dose: 200.0 mg/kg/injection, schedule: Q01DX009 (ip), vehicle: distilled water + Tween-80 93 % of control | dose: 400.0 mg/kg/injection, schedule: Q01DX009 (ip), vehicle: distilled water + Tween-80 92 % of control

COC(=O)C(CCCCNC(=O)OCc1ccccc1)NC(=O)C(CCCCNC(=O)OCc1ccccc1)NC(=O)OC(C)(C)C (stereo not given)
inactive: dose: 6.25 mg/kg/injection, schedule: Q01DX005 (ip), vehicle: saline with Tween-80 100 % of control | dose: 12.5 mg/kg/injection, schedule: Q01DX005 (ip), vehicle: saline with Tween-80 97 % of control | dose: 25.0 mg/kg/injection, schedule: Q01DX005 (ip), vehicle: saline with Tween-80 97 % of control

CCC[CH2][Sn]([CH2]CCC)([CH2]CCC)[CH2]CC[N+](C)(C)C
inactive: dose: 0.78 mg/kg/injection, schedule: Q01DX009 (ip), vehicle: saline 105 % of control | dose: 1.56 mg/kg/injection, schedule: Q01DX009 (ip), vehicle: saline 105 % of control | dose: 3.12 mg/kg/injection, schedule: Q01DX009 (ip), vehicle: saline 101 % of control

O=C1CCC(c2nnc(COc3ccc(Cl)cc3)o2)N1Cc1ccccc1 (stereo not given)
inactive: [1] 99 % of control | [2] 102 % of control | [3] 98 % of control

CN(C)c1ccc(C(C#N)C(C#N)c2ccccc2)cc1 (stereo not given)
inactive: [4] 94 % of control | [5] 94 % of control | [6] 103 % of control | [7] 100 % of control

C[N+](C)(C)Cc1ccccc1
inactive: dose: 3.13 mg/kg/injection, schedule: Q01DX009 (ip), vehicle: saline with Tween-80 100 % of control | dose: 3.13 mg/kg/injection, schedule: Q01DX009 (ip), vehicle: saline 99 % of control | dose: 6.25 mg/kg/injection, schedule: Q01DX009 (ip), vehicle: Klucel (hydroxypropylcellulose) (HPC) 95 % of control | [4] 100 % of control | dose: 6.25 mg/kg/injection, schedule: Q01DX009 (ip), vehicle: saline 94 % of control | dose: 12.5 mg/kg/injection, schedule: Q01DX009 (ip), vehicle: Klucel (hydroxypropylcellulose) (HPC) 93 % of control | [5] 100 % of control | [8] 96 % of control | dose: 25.0 mg/kg/injection, schedule: Q01DX009 (ip), vehicle: Klucel (hydroxypropylcellulose) (HPC) 99 % of control

CC(=O)N1CCCC1C(=O)O (stereo not given)
inactive: dose: 25.0 mg/kg/injection, schedule: Q04DX003 (ip), vehicle: saline 102 % of control | dose: 50.0 mg/kg/injection, schedule: Q04DX003 (ip), vehicle: saline 112 % of control | [9] 105 % of control and 87 % of control | [10] 101 % of control

Nc1ccccc1C(=O)/C=C/c1ccccc1
inactive: [11] 100 % of control | [12] 100 % of control | [13] 100 % of control

Cc1ccc(C)c(N2C(=O)CC3(CCCC3)C2=O)c1
inactive: dose: 100.0 mg/kg/injection, schedule: Q04DX003 (ip), vehicle: Klucel (hydroxypropylcellulose) (HPC) 101 % of control | dose: 200.0 mg/kg/injection, schedule: Q04DX003 (ip), vehicle: Klucel (hydroxypropylcellulose) (HPC) 101 % of control | dose: 400.0 mg/kg/injection, schedule: Q04DX003 (ip), vehicle: Klucel (hydroxypropylcellulose) (HPC) 99 % of control

O=C(CBr)c1ccc(F)cc1
inactive: [5] 113 % of control | [14] 104 % of control | [15] 100 % of control

CCC/C=C\C=C\C(=O)OC1C2C=C3CC(C(C)O)OC(=O)CC(O)CC4CC(OC(C)=O)C(C)(C)C(O)(CC5C/C(=C\C(=O)OC)CC(/C=C/C(C)(C)C16OC(=O)C(O)C32O6)O5)O4 (stereo not given)
active: dose: 0.03 mg/kg/injection, schedule: Q01DX009 (ip), vehicle: saline + alcohol 163 % of control | dose: 30.0 micrograms/kg/injection, schedule: Q01DX009 (ip), vehicle: saline + alcohol 153 % of control

COC(=O)C1=C(\N2CCOCC2)CCCCC/C=C\1C(=O)OC
inactive: [6] 99 % of control and 106 % of control | [7] 100 % of control and 103 % of control | dose: 100.0 mg/kg/injection, schedule: Q01DX009 (ip), vehicle: saline with Tween-80 103 % of control and 107 % of control | dose: 200.0 mg/kg/injection, schedule: Q01DX009 (ip), vehicle: saline with Tween-80 88 % of control and 95 % of control

c1ccc2sc(SCCSc3nc4ccccc4s3)nc2c1
inactive: [16] 99 % of control | [17] 92 % of control | dose: 240.0 mg/kg/injection, schedule: Q01DX005 (ip), vehicle: Klucel (hydroxypropylcellulose) (HPC) 89 % of control

C=CC[C@]1(S(=O)(=O)c2ccccc2)[C@@H](N(C)C)C[C@@H](O[Si](C)(C)C(C)(C)C)[C@@H]1/C=C/[C@H](CCCCC)O[Si](C)(C)C(C)(C)C
inactive: dose: 12.5 mg/kg/injection, schedule: Q01DX005 (ip), vehicle: Klucel (hydroxypropylcellulose) (HPC) 107 % of control | dose: 25.0 mg/kg/injection, schedule: Q01DX005 (ip), vehicle: Klucel (hydroxypropylcellulose) (HPC) 111 % of control | [18] 107 % of control

O=C(O)C(Cc1ccc(N(CCCl)CCCl)cc1)C(=O)O
active: [5] 161 % of control | [6] 171 % of control | [7] 189 % of control and 213 % of control

O=C1CCC(n2cc(F)c(=O)[nH]c2=O)O1 (stereo not given)
inactive: [14] 105 % of control and 94 % of control | [15] 108 % of control and 95 % of control | dose: 100.0 mg/kg/injection, schedule: Q04DX003 (ip), vehicle: saline with Tween-80 101 % of control and 120 % of control and 95 % of control | dose: 400.0 mg/kg/injection, schedule: Q04DX003 (ip), vehicle: saline with Tween-80 103 % of control

O=C1Cc2ccccc2N1C(=O)c1ccc(F)cc1
inactive: dose: 100.0 mg/kg/injection, schedule: Q01DX001 (ip), vehicle: Klucel (hydroxypropylcellulose) (HPC) 102 % of control | dose: 200.0 mg/kg/injection, schedule: Q01DX001 (ip), vehicle: Klucel (hydroxypropylcellulose) (HPC) 92 % of control | dose: 400.0 mg/kg/injection, schedule: Q01DX001 (ip), vehicle: Klucel (hydroxypropylcellulose) (HPC) 95 % of control

CC1(C)CC(NCCO)=CC(=S)N1
inactive: [18] 103 % of control | dose: 100.0 mg/kg/injection, schedule: Q01DX005 (ip), vehicle: Klucel (hydroxypropylcellulose) (HPC) 101 % of control | dose: 200.0 mg/kg/injection, schedule: Q01DX005 (ip), vehicle: Klucel (hydroxypropylcellulose) (HPC) 99 % of control

Cc1ccc(S(=O)(=O)C2(NC(=O)c3ccc(Cl)cc3)CC2)cc1
inactive: dose: 30.0 mg/kg/injection, schedule: Q01DX005 (ip), vehicle: Klucel (hydroxypropylcellulose) (HPC) 92 % of control and 94 % of control | [16] 93 % of control | [17] 86 % of control and 91 % of control and 92 % of control

Cn1c(=O)c2c(nc(/N=C/c3cccc([N+](=O)[O-])c3)n2C)n(C)c1=O
inactive: [9] 100 % of control | dose: 200.0 mg/kg/injection, schedule: Q04DX003 (ip), vehicle: saline 94 % of control | [10] 86 % of control

CC12OC(=O)CC1OC2(c1ccccc1)c1ccccc1 (stereo not given)
inactive: [11] 96 % of control | [12] 93 % of control | [13] 90 % of control

O=S(=O)(c1ccccc1)C(SC(=S)Sc1ccccc1)Sc1ccccc1 (stereo not given)
inactive: [8] 104 % of control | dose: 25.0 mg/kg/injection, schedule: Q01DX009 (ip), vehicle: saline 107 % of control | [7] 114 % of control | dose: 50.0 mg/kg/injection, schedule: Q01DX009 (ip), vehicle: saline 96 % of control

CCOC(=O)c1[nH]c(=O)c2ccccc2c1O
inactive: dose: 12.5 mg/kg/injection, schedule: Q01DX009 (ip), vehicle: suspension in saline 91 % of control | dose: 25.0 mg/kg/injection, schedule: Q01DX009 (ip), vehicle: suspension in saline 92 % of control | dose: 50.0 mg/kg/injection, schedule: Q01DX009 (ip), vehicle: suspension in saline 99 % of control | dose: 100.0 mg/kg/injection, schedule: Q01DX009 (ip), vehicle: suspension in saline 98 % of control
